Values joined by “and” are separate entries in the source; they are usually repeats but may differ in a detail not shown here. Equal values may be shown once. Read-outs that look alike come from different tables or passages of the source.

The subject of data set [1] is Cytochrome P450 (CYP), mouse liver microsomes. Description: Metabolic stability (CYP) using mouse liver microsomes, HPLC. The format is in vitro ADME. The settings on record: for Area (%) of peak: LC-UV (220 nm). On the procedure: For CB-7, B2-24, and B2-5A, 10 mg/mL DMSO solution was used. Each chemical compound was diluted with acetonitrile to 0.1 mg/mL, which was used as the analytical standard. Mouse liver microsomal fractions were rapidly thawed in a warm bath at 37° C. and kept on ice. Reaction buffer containing CYP cofactor was prepared on ice and mixed with the microsomal fractions. The reaction solution was preincubated at 37° C. for 5 minutes, and then the test substance solution was added and mixed well by pipetting. The volume of the reaction solution was 200 μL and the final concentration of the test substance was 0.1 mg/mL. The reaction solution was incubated at 37° C. for 30 minutes or 2 hours, and the reaction was stopped by adding 3 times the volume of acetonitrile and vortexing. After the reaction was stopped, the samples were centrifuged, and each supernatant was separated and dried in an evaporator. 50 μL of 50% acetonitrile solution was added to each solidified sample, and each sample was re-dissolved by vortexing for 5 minutes. Each redissolved solution was centrifuged, and each supernatant was subjected to HPLC analysis using a HITACHI Lachrom ELITE (HITACHI) as a HPLC system and COSMOSIL 5C18-MS-II, 4.6 mmI.D.×150 mm (nacalai tesque Co.) as a column.
Metabolic stability analysis of CB-7 and B2-24-4-5A·HCOOH was performed by the method of Example 5.

Another data set concerns the target T1, mouse TLR7 (Mus musculus, UniProt P58681).
T1 construct: expressed in transfected cells; host or cells: Ba/F3 cells (provided by Prof. Kensuke Miyake, University of Tokyo)
T1 sequence (P58681 27-1050): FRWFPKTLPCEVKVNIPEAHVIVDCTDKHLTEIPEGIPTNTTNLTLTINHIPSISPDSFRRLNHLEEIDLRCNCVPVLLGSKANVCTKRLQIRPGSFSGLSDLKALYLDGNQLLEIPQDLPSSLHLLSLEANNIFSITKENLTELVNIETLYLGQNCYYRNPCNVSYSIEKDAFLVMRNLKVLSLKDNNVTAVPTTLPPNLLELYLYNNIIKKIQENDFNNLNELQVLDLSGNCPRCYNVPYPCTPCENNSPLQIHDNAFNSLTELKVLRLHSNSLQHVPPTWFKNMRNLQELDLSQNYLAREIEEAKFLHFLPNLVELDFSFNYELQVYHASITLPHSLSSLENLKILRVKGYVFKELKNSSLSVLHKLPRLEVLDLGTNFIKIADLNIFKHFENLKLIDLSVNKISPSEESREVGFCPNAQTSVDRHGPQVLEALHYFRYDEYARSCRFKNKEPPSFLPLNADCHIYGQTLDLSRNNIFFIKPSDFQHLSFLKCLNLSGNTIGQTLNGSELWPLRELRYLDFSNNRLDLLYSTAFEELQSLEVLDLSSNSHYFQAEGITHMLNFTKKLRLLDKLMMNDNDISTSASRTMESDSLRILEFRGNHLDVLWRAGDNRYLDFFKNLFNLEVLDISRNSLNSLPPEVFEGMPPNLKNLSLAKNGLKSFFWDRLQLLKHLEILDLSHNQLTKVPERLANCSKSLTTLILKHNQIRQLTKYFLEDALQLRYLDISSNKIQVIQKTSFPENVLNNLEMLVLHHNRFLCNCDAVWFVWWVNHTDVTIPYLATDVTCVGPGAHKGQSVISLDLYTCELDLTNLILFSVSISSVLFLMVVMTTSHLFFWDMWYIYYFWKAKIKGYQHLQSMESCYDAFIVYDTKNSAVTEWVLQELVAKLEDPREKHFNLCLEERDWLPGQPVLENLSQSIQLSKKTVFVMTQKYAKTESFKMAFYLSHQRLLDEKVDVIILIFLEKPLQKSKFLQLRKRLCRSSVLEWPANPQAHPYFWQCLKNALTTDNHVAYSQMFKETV
Description: Inhibition of TLR7 activation in mouse TLR7-expressing NF-κB-GFP reporter Ba/F3 cells. The format is cell-based. The source says: Mouse TLR7-expressing reporter cells (Ba/F3 cells) were used to evaluate inhibition of TLR7 activation in each derivative and CB-7. These cells were provided by Professor Kensuke Miyake (Department of Infection Genetics, Institute of Medical Science, University of Tokyo). These cells have been transfected with a reporter gene that connects GFP gene downstream of the promoter region of NF-κB. Therefore, the expression of GFP is enhanced by the addition of a ligand for TLR7 expressed by the cells. The fluorescence intensity of GFP was attenuated by the addition of each derivative, and the inhibition of TLR7 activation by each derivative was evaluated as an indicator.
Loxoribine (Alexis Biochemicals) was used as the ligand for mouse TLR7. Gardiquimod (Invivogen) was used as the ligand for human TLR7.
Ba/F3 cells cultured in RPMI 1640 medium containing 10% (v/v) fetal calf serum (FCS), 50 U/mL penicillin, 50 μg/mL streptomycin, 2 mM L-glutamine, […] 2-mercaptoethanol, 1 ng/mL interleukin-3 were aliquoted into 96-well plates so that the number of cells per well was 1.0×10^5 cells/100 μL. 50 μL of each derivative or CB-7, prepared to final concentrations of 1, 5, 10, 25, 50, and 100 µM, was added to each well. 96-well plates were incubated at 37° C. for 30 minutes in the presence of 5% CO2. Next, 250 μg/mL Roxoribin was added to each well and incubated for 18 hours. At the end of incubation, cells were washed with PBS (FACS buffer) containing 2.5% (v/v) FCS and suspended in 200 μL of FACS buffer containing 25 μg/mL […] for each cell. GFP fluorescence intensities of the cells were analyzed by flow cytometry. Flow cytometry measurement was performed on a FACSCanto™ II (Becton Dickinson) and data were analyzed with FlowJo software (Tree Star). The MFI (%) upon stimulation with roxoribin in the presence of […] derivatives or CB-7 was calculated using the MFI upon stimulation with roxoribin alone as 100%, and then IC50 (chemical compound concentration that inhibits activity by 50%) was calculated by logistic regression analysis.
The evaluation of the TLR7 activation inhibition by B2-24-4-5A·HCOOH was performed by the method described in Example 2. CB-7 and B2-24-4·HCl were used as controls.

A short description of data set [2]: Plasma concentration in normal mice after oral administration. It is filed as in vivo, mice (C57BL/6N). To be noted: C57BL/6N mice, 1 mg orally, LC/MS/MS. On the procedure: Plasma concentrations of CB-7 or B2-24-4-5A·HCOOH were measured in normal mice (C57BL/6N, 11 weeks old, female) after oral administration. 1 mg of CB-7 or B2-24-4-5A·HCOOH was administered orally to mice C57BL/6N. After 0.5, 1, 2, 4, or 8 hours, blood was collected from mice C57BL/6N to prepare plasma. The concentration of CB-7 or B2-24-4-5A·HCOOH in the plasma was measured by LC/MS/MS.

As for `C=C[C@]1(CO)CC[C@@H](C(=C)C)[C@H](c2ccc(OC)cc2)C1` [CB-7, reference compound], the “Number of peaks detected by HPLC” value in data set [1] (Example 3, 0.1 mg/mL, 37° C., 30 minutes or 2 hours) is reported as 7; in data set [1] (Example 9), 9. Besides, the “Area (%) of peak” value in data set [1] (Example 9, 0 h) is 100%; in data set [1] (Example 9, incubation 0.5 h), 65.3%; in data set [1] (Example 9, incubation 2.0 h) it was 41.6% and 41.2%. Also, the IC50 at mouse TLR7 (Example 2, Ba/F3 reporter cells, loxoribine stimulation 18 hours, GFP MFI, read-out: IC50 of CB-7 derivatives with modified Areas a and b) stood at 3.12 µM; at mouse TLR7 (Example 5, Table 5, method of Example 2, read-out: IC50), 7.66 µM. Further, the “Plasma concentration after 8 hours” value in data set [2] is reported as “could not be detected”.

These data come from patent US12410157B2, “Compound useful as toll-like receptor 7 activation inhibitor” (TOYAMA PREFECTURAL UNIVERSITY, priority 2020, dated 2025).
